Experiment [1] has as its target T1, WDR5 (Homo sapiens, UniProt P61964). As to the kind of experiment: Fluorescence Polarization (FP) binding assay. Put shortly: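 Buffer was pH 6.5 sodium phosphate (80 mM) with 20 mM KCl and 0.008% Triton X-100; 9-Ala-FAM probe at 20 nM used 0.05 μM WDR5 and 480/540 nm polarization, H3 (1-15) probe at 30 nM used 0.3 μM WDR5 and 485/528 nm. Quadruplicate data were hyperbola-fitted to give Kdisp.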
(In general: In fluorescence polarisation assays a small probe gives low polarisation when free and higher when bound to something large.)

A further experiment has as its system MV4-11 cells. As to the kind of experiment: Cell proliferation assay (ATPlite). Type of experiment: cell-based. As to conditions: Homo sapiens, 120 h; MV4-11 cells, five days; read-out: GI MV411 EC50. Put shortly:
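ATPlite luminescence after five days' culture (37° C, 5% CO2) gives viability. Compounds dosed in 10 concentrations up to 10 μM against DMSO; 1,000 cells/well seeded in Alpha-MEM/10% FBS.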

The target in experiment [2] is T1, WDR5. Briefly: Surface Plasmon Resonance (SPR) assay. Type of experiment: binding. The arrangement: Full length WDR5 with an N-terminal His tag and C-terminal AviTag; His tag (N); made in house; host or cells: E. coli. The note with it: read-out: SPR Kd. The method in brief:
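Full-length biotinylated WDR5 (N-His, C-AviTag, E. coli) captured (~3000 RU) on streptavidin SA chip; Biacore T200. HBS-EP pH 7.4 plus 5% DMSO running buffer, 40 μl/min.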

Turning to `COc1cc(N2CC=C(c3c(F)cc(N4CCN(C)[C@@H](C)C4)c(NC(=O)c4c[nH]c(=O)cc4C(F)F)c3F)C2)ncn1` [Example 74, (S)-4-(difluoromethyl)-N-(6-(3,4-dimethylpiperazin-1-yl)-2,4-difluoro-3-(1-(6-methoxypyrimidin-4-yl)-2,5-dihydro-1H-pyrrol-3-yl)phenyl)-6-oxo-1,6-dihydropyridine-3-carboxamide], the IC50 at WDR5 [1] turned out to be 16.4 nM. Moreover, the EC50 with MV4-11 cells worked out at 36.7 nM. Besides, the Kd at WDR5 [2] is 2.12 nM.
As for `CC(C)OC(=O)N1CCC=C(c2c(F)cc(N3C[C@@H](C)N(C)[C@@H](C)C3)c(NC(=O)c3c[nH]c(=O)cc3C(F)(F)F)c2F)C1` [Example 13, Isopropyl 5-(2,6-difluoro-3-(6-oxo-4-(trifluoromethyl)-1,6-dihydropyridine-3-carboxamido)-4-((3S,5R)-3,4,5-trimethylpiperazin-1-yl)phenyl)-3,6-dihydropyridine-1(2H)-carboxylate], the IC50 at WDR5 [1] was 14.4 nM. Besides, the EC50 in the experiment with MV4-11 cells amounted to 173 nM. Moreover, the Kd on WDR5 [2] came to 1.91 nM.
For the compound `C[C@H]1CN(c2cc(F)c(C3=CCN(c4ncc(C#N)s4)CC3)c(F)c2NC(=O)c2c[nH]c(=O)cc2C(F)F)CCN1C` [Example 97, (S)—N-(3-(1-(5-cyanothiazol-2-yl)-1,2,3,6-tetrahydropyridin-4-yl)-6-(3,4-dimethylpiperazin-1-yl)-2,4-difluorophenyl)-4-(difluoromethyl)-6-oxo-1,6-dihydropyridine-3-carboxamide], at WDR5 [1], the IC50 was 13.6 nM. For the same compound, the EC50 with MV4-11 cells came to 138 nM. For the same compound, at WDR5 [2], the equilibrium dissociation constant (Kd) amounted to 0.78 nM.
For `C[C@@H]1CN(c2ncc(-c3c(F)cc(N4CCN(C)[C@@H](C)C4)c(NC(=O)c4cn(C)c(=O)cc4C(F)(F)F)c3F)cn2)C[C@H](C)O1` [Example 164, N-(3-(2-((2S,6R)-2,6-dimethylmorpholino)pyrimidin-5-yl)-6-((S)-3,4-dimethylpiperazin-1-yl)-2,4-difluorophenyl)-1-methyl-6-oxo-4-(trifluoromethyl)-1,6-dihydropyridine-3-carboxamide], the IC50 at WDR5 [1] was 13.3 nM. The EC50 with MV4-11 cells is 71.9 nM. For the same compound, the Kd at WDR5 [2] turned out to be 1.16 nM.
For the compound `C[C@@H]1CN(c2ncc(-c3c(F)cc(N4CCN(C)[C@@H](C)C4)c(NC(=O)c4cn(C)c(=O)cc4C(F)F)c3F)cn2)C[C@H](C)O1` [Example 161, 4-(Difluoromethyl)-N-(3-(2-((2S,6R)-2,6-dimethylmorpholino)pyrimidin-5-yl)-6-((S)-3,4-dimethylpiperazin-1-yl)-2,4-difluorophenyl)-1-methyl-6-oxo-1,6-dihydropyridine-3-carboxamide], at WDR5 [1], the IC50 stood at 11.9 nM. Further, the EC50 in the experiment on MV4-11 cells was found to be 79.3 nM. For the same compound, the dissociation constant (Kd) at WDR5 [2] was found to be 1.1 nM.
Consider `C[C@H]1CN(c2cc(F)c(-c3ccc4c(c3)OCO4)c(F)c2NC(=O)c2c[nH]c(=O)cc2C(F)(F)F)CCN1C` [Example 184, (S)—N-(3-(benzo[d][1,3]dioxol-5-yl)-6-(3,4-dimethylpiperazin-1-yl)-2,4-difluorophenyl)-6-oxo-4-(trifluoromethyl)-1,6-dihydropyridine-3-carboxamide], for which the IC50 at WDR5 [1] was 25.5 nM. Moreover, the EC50 with MV4-11 cells stood at 90.3 nM. The dissociation constant (Kd) on WDR5 [2] is 1.17 nM.
In the case of `COc1cnc(N2CCC=C(c3c(F)cc(N4C[C@@H](C)N(C)[C@@H](C)C4)c(NC(=O)c4c[nH]c(=O)cc4C(F)(F)F)c3F)C2)nc1` [Example 138, N-(2,4-difluoro-3-(1-(5-methoxypyrimidin-2-yl)-1,2,5,6-tetrahydropyridin-3-yl)-6-((3S,5R)-3,4,5-trimethylpiperazin-1-yl)phenyl)-6-oxo-4-(trifluoromethyl)-1,6-dihydropyridine-3-carboxamide], the IC50 on WDR5 [1] came to 19.5 nM. Also, the EC50 in the experiment with MV4-11 cells stood at 109 nM. On WDR5 [2], the Kd turned out to be 1.93 nM.
In the case of `C[C@@H]1CN(c2cc(F)c(-c3cnc(N4CCOCC4)nc3)c(F)c2NC(=O)c2c[nH]c(=O)cc2C(F)(F)F)C[C@H](C)N1C` [Example 2, N-(2,4-difluoro-3-(2-morpholinopyrimidin-5-yl)-6-((3S,5R)-3,4,5-trimethylpiperazin-1-yl)phenyl)-6-oxo-4-(trifluoromethyl)-1,6-dihydropyridine-3-carboxamide], the IC50 on WDR5 [1] was determined as 16.3 nM. Further, in the experiment with MV4-11 cells, the EC50 came out at 30.1 nM. Besides, the Kd on WDR5 [2] amounted to 3.68 nM.
With `C[C@@H]1CN(c2ccc(-c3c(F)cc(N4CCN(C)[C@@H](C)C4)c(NC(=O)c4cn(C)c(=O)cc4C(F)F)c3F)cn2)C[C@H](C)O1` [Example 175, 4-(Difluoromethyl)-N-(3-(6-((2S,6R)-2,6-dimethylmorpholino)pyridin-3-yl)-6-((S)-3,4-dimethylpiperazin-1-yl)-2,4-difluorophenyl)-1-methyl-6-oxo-1,6-dihydropyridine-3-carboxamide], the IC50 at WDR5 [1] worked out at 24.6 nM. For the same compound, the EC50 in the experiment on MV4-11 cells was found to be 255 nM. Besides, the Kd on WDR5 [2] was 1.57 nM.
As for `COc1cc(N2CC=C(c3c(F)cc(N4CCN(C)[C@@H](C)C4)c(NC(=O)c4c[nH]c(=O)cc4C(F)(F)F)c3F)CC2)ncn1` [Example 76, (S)—N-(6-(3,4-dimethylpiperazin-1-yl)-2,4-difluoro-3-(1-(6-methoxypyrimidin-4-yl)-1,2,3,6-tetrahydropyridin-4-yl)phenyl)-6-oxo-4-(trifluoromethyl)-1,6-dihydropyridine-3-carboxamide], the IC50 on WDR5 [1] was determined as 21.6 nM. In addition, the concentration for a half-maximal effect (EC50) in the experiment with MV4-11 cells worked out at 42 nM. Besides, the Kd on WDR5 [2] amounted to 1.42 nM.
Take `C[C@@H]1CN(c2cc(F)c(-c3cnc(N4CCC(F)(F)CC4)nc3)c(F)c2NC(=O)c2c[nH]c(=O)cc2C(F)(F)F)C[C@H](C)N1C` [Example 61, N-(3-(2-(4,4-difluoropiperidin-1-yl)pyrimidin-5-yl)-2,4-difluoro-6-((3S,5R)-3,4,5-trimethylpiperazin-1-yl)phenyl)-6-oxo-4-(trifluoromethyl)-1,6-dihydropyridine-3-carboxamide]: at WDR5 [1], the IC50 was 11.7 nM. The EC50 in the experiment on MV4-11 cells worked out at 22.9 nM. The Kd at WDR5 [2] stood at 1.26 nM.
With `C[C@@H]1CN(c2cc(F)c(C3=CCN(C(=O)OC4(C)CCC4)C3)c(F)c2NC(=O)c2c[nH]c(=O)cc2C(F)(F)F)C[C@H](C)N1C` [Example 141, 1-Methylcyclobutyl 3-(2,6-difluoro-3-(6-oxo-4-(trifluoromethyl)-1,6-dihydropyridine-3-carboxamido)-4-((3S,5R)-3,4,5-trimethylpiperazin-1-yl)phenyl)-2,5-dihydro-1H-pyrrole-1-carboxylate], the IC50 at WDR5 [1] was 10.1 nM. For the same compound, the EC50 in the experiment with MV4-11 cells was 31.2 nM. At WDR5 [2], the Kd was determined as 0.96 nM.
The like results for `C[C@@H]1CN(c2ncc(-c3c(F)cc(N4CCN(C)[C@@H](C)C4)c(NC(=O)c4cn(C)c(=O)cc4C(F)F)c3F)cn2)C[C@@H](C)O1` [Example 162, 4-(Difluoromethyl)-N-(3-(2-((2R,6R)-2,6-dimethylmorpholino)pyrimidin-5-yl)-6-((S)-3,4-dimethylpiperazin-1-yl)-2,4-difluorophenyl)-1-methyl-6-oxo-1,6-dihydropyridine-3-carboxamide] were, in that order, 14.1 nM, 210 nM and 1.25 nM.
The like results for `COc1cc(N2CCC=C(c3c(F)cc(N4C[C@@H](C)N(C)[C@@H](C)C4)c(NC(=O)c4c[nH]c(=O)cc4C(F)(F)F)c3F)C2)ncn1` [Example 142, N-(2,4-difluoro-3-(1-(6-methoxypyrimidin-4-yl)-1,2,5,6-tetrahydropyridin-3-yl)-6-((3S,5R)-3,4,5-trimethylpiperazin-1-yl)phenyl)-6-oxo-4-(trifluoromethyl)-1,6-dihydropyridine-3-carboxamide] were, in that order, 13.2 nM, 38.3 nM and 1.76 nM.
With `CC(C)[C@H]1CN(c2ncc(-c3c(F)cc(N4C[C@@H](C)N(C)[C@@H](C)C4)c(NC(=O)c4c[nH]c(=O)cc4C(F)(F)F)c3F)cn2)CCO1` [Example 103, N-(2,4-difluoro-3-(2-((S)-2-isopropylmorpholino)pyrimidin-5-yl)-6-((3S,5R)-3,4,5-trimethylpiperazin-1-yl)phenyl)-6-oxo-4-(trifluoromethyl)-1,6-dihydropyridine-3-carboxamide], at WDR5 [1], the IC50 is 17.7 nM. In the experiment on MV4-11 cells, the EC50 was determined as 14.7 nM. Besides, the Kd at WDR5 [2] was 5.01 nM.
For `C[C@H]1CN(c2cc(F)c(C3=CCN(C(=O)OC4CC(F)(F)C4)C3)c(F)c2NC(=O)c2c[nH]c(=O)cc2C(F)F)CCN1C` [Example 44], in that order: 14.4 nM, 180 nM and 2.32 nM.
The like results for `C[C@H]1CN(c2ccc(-c3c(F)cc(N4CCN(C)[C@@H](C)C4)c(NC(=O)c4c[nH]c(=O)cc4C(F)F)c3F)cn2)CCO1` [Example 183, 4-(Difluoromethyl)-N-(6-((S)-3,4-dimethylpiperazin-1-yl)-2,4-difluoro-3-(6-((S)-2-methylmorpholino)pyridin-3-yl)phenyl)-6-oxo-1,6-dihydropyridine-3-carboxamide] were, in that order, 22.7 nM, 24.4 nM and 1.34 nM.

In general, IC50 refers to the concentration that gives 50% inhibition. A word on the EC50: it is the concentration that produces a half-maximal response. As a reminder, the Kd is a measure of binding affinity in units of concentration.

Source of the values: patent US20200385371A1 (Propellon Therapeutics Inc., priority 2017, published 2020).
